Patent publication EP0563732A1, “7-oxo-7H-pyrido(1,2,3-de)(1,4)benzoxazinecarboxylic acids and esters and their use as antiviral agents” (BAYER AG, priority 1992, dated 1993)
Where a name gives a salt, the structure may show the parent alone.

What follows are molecules tested on Hepatitis B Virus (assay: HBV test system: HBV-DNA in the supernatant of transfected hepatoma cells (PEG precipitation, non-radioactive HBV DNA probe)). Details: HepG2.2.15, 50% inhibition of HBV-DNA concentration in supernatant, HEP G2.2.15 cells, read-out: IC₅₀.
Format: cell-based
Description: Der Nachweis wurde in mit Hepatitis B Virus DNA transfizierten Hepatomzellen (HEP G2.2.15) geführt. Die Ergebnisse der unten aufgeführten Beispiele wurden zu dem in der folgenden Literaturangabe [Sells, M.A.; Chen, M.L., Acs, G., Proc. Natl. Acad. Sci. USA S. 1005 - 1009, Vol. 84 (1987] beschriebenen HBV-Testsystem ermittelt:
Transfizierte Hepatomzellen (HEP G2.2.15) wurden mit verschiedenen Konzentrationen an der jeweiligen Verbindung inkubiert. Durch Behandlung der transfizierten Hepatomzellinie HEP G2.2.15 mit den erfindungsgemäßen Verbindungen konnte das […] der virusspezifischen HBV-DNA im Überstand sowie eine Reduktion des HBsAg Spiegels gezeigt werden. Es wurde weiter gefunden, daß die erfindungsgemäßen Verbindungen zu einer Reduktion der replikativen Intermediate der Hepatitisviren führen. Im Überstand der Zellkulturen wurde nach PEG Fällung der Gehalt an HBV-DNA bestimmt. Dies geschah unter Verwendung einer nicht radioaktiv markierten HBV genomischen DNA Probe [Pauly, P., 1982, Ph.D. Thesis, University of Göttingen, F.R.G.; Köchel et al., 1990, EMBL, Accession-Nr. X 51790]. Gleichzeitig erfolgte der Nachweis der Beeinflussung der HBsAg Bildung mittels eines kommerziell erhältlichen Elisa Tests. Die angegebenen IC₅₀-Werte beziehen sich auf die Substratkonzentrationen, die unter den oben aufgeführten Testbedingungen eine 50%ige Hemmung der HBV-DNA Konzentration im Überstand bewirken. Tabelle A
Gleichzeitig erfolgte die Bestimmung des möglicherweise vorhandenen cytotoxischen Einflusses der erfindungsgemäßen Verbindungen mittels Kristallviolettfärbung bzw. über den Einbau von radioaktiv markiertem Thymidin in die zelluläre DNA.

Row | SMILES | IC50
1 | CC1=COc2c(N3CCOCC3)c(F)cc3c(=O)c(C(=O)O)cn1c23 [Beispiel 16] | 5 µM
2 | CCOC(=O)c1cn2c3c(c(N4CCC(N)C4)c(F)cc3c1=O)OC(c1ccc(OC)cc1)=C2 (centres unmarked) [Beispiel 38, 10-(3-Amino-1-pyrrolidinyl)-9-fluor-2-(4-methoxyphenyl)-7-oxo-7H-pyrido[1,2,3-de][1,4]benzoxacin-6-carbonsäureethylester-hydrochlorid] | 5 µM
3 | CN1CCN(c2c(F)cc3c(=O)c(C(=O)O)cn4c3c2OC(C(C)(C)C)=C4)CC1 [Beispiel 1, 2-tert-Butyl-9-fluor-10-(4-methyl-1-piperazinyl)-7-oxo-7H-pyrido[1,2,3-de][1,4]-benzoxacin-6-carbonsäure] | 0.1 µM
4 | CC1=COc2c(N3CCNCC3)c(F)cc3c(=O)c(C(=O)O)cn1c23 [Beispiel 39] | 0.1 µM
5 | COC(=O)c1cn2c3c(c(N4CCNCC4)c(F)cc3c1=O)OC=C2C [Beispiel 33] | 0.5 µM
